Assays:
ZR-75-1 cells [1] = assay: anti-p53 immunoprecipitation and anti-MUC1 C-ter immunoblot; type: cell-based, human; details: 50 or 100 μM, 24 h
Method: (§1) Immunoblotting and immunoprecipitation. Cell lysates were prepared from subconfluent cells as previously described [Wei et al. (2003) J. Biol. Chem. 278:29288-29297]. Immunoblot analysis was performed with anti-p53 antibody (Ab-2, Ab-6; Oncogene Research Products, San Diego, Calif.), anti-MUC1 N-ter antibody [the DF3 monoclonal antibody that binds to the N-terminal segment of human MUC1; Kufe et al. (1984) Hybridoma 3:223-232], anti-MUC1 C-ter antibody (Ab-5 that binds to the C-terminal segment of human MUC1; Neomarkers, Freemont, Calif.), anti-β-actin antibody (Sigma), anti-Myc antibody (Ab-1; Oncogene Research Products), anti-Bax antibody antibody (Santa Cruz Biotechnology; Santa Cruz, Calif.) and anti-p21 (Santa Cruz Biotechnology). Lysates were subjected to immunoprecipitation with anti-p53 or anti-Myc antibody and the immune complexes were analyzed by immunoblotting.

HCT116/MUC1 cells [2] = assay: as above; type: cell-based, human; details: 50 or 100 μM, 24 h
Method: as §1

ZR-75-1 cells [3] = assay: Colony formation assay; type: cell-based, human; details: ZR-75-1/vector vs ZR-75-1/MUC1siRNA cells, 12-48 h treatment, 8 d culture
Method: (§2) Colony formation assays. Aliquots containing 500 cells were plated into individual wells of 6-well culture plates containing 2 ml/well complete medium and incubated for 18-24 h at 37° C. The cells were treated with CDDP or etoposide for 12-48 h, washed and incubated for 8 d. Resulting colonies were stained with crystal violet and counted manually.

[4] = system: HCT116/MUC1 as compared to HCT116/vector cells; assay: Colony formation assay; type: cell-based, human; details: 12-48 h treatment, 8 d culture
Method: as §2

ZR-75-1 cells [5] = assay: ChIP with anti-MUC1 C-ter antibody, p21 gene p53RE2; type: cell-based, human; details: 50 μM, kinetic analysis
Method: (§3) Chromatin immunoprecipitation (ChIP) and Repeat ChIP (Re-ChIP) assays. ChIP assays were performed as previously described [Shang et al. (2000) Cell 103:843-852] using anti-MUC1 C-ter antibody, anti-p53 antibody (Ab-6; Oncogene Research Products), anti-CBP antibody (C-1; Santa Cruz Biotechnology), anti-HDAC1 antibody (Upstate Biotechnology Inc., Waltham, Mass.), anti-Ac-H4 (Upstate Biotechnology Inc.), anti-TBP antibody (58C9; Santa Cruz Biotechnology), anti-TFIIB antibody (IIB8; Santa Cruz Biotechnology), or anti-TAFII250 antibody (6B3; Santa Cruz Biotechnology). For PCR, 2 μl from a 50 μl DNA extraction were used with 30-38 cycles of amplification. The primers for the p21 gene promoter p53-responsive elements (p53RE1 and p53RE2) have been previously described [Liu et al. (2003) J. Biol. Chem. 277:17557-17565]. The primers for the p21 gene control region (CR) were (forward: 5′-[…]-3′ (SEQ ID NO:14); reverse 5′-[…]-3′ (SEQ ID NO:15)) and the p21 gene PP were (forward: 5′-[…]-3′ (SEQ ID NO:16); reverse: 5′-[…]-3′ (SEQ ID NO:17)). Primers used for the Bax gene promoter p53RE were (forward: 5′-[…]-3′ (SEQ ID NO:18); reverse: 5′-[…]-3′ (SEQ ID NO:19)), Bax gene control region (CR) were (forward: 5′-[…]-3′ (SEQ ID NO:20); reverse: 5′-[…]-3′ (SEQ ID NO:21)) and the Bax gene PP were (forward: 5′-[…]-3′ (SEQ ID NO:22); reverse: 5′-[…]-3′ (SEQ ID NO:23)).

HCT116/MUC1 cells [6] = assay: as above; type: cell-based, human; details: 50 μM, kinetic analysis
Method: as §3

HCT116/vector cells [7] = assay: ChIP with anti-p53 antibody, p21 gene p53RE2; type: cell-based, human; details: 50 μM, 8 h
Method: as §3

HCT116/MUC1 cells [8] = assay: Flow cytometry of cell cycle (DNA content); type: cell-based, human; details: 48 h
Method: (§4) Flow cytometry. Cells were fixed with 80% ice-cold ethanol, incubated in phosphate buffered saline (PBS) containing 30 μg/ml RNase (Roche Applied Science) for 60 min at 37° C. and then stained with propidium iodide (Sigma) for 30 min at room temperature in the dark. DNA content was analyzed by flow cytometry (Coulter EPICS XL-MCL; Miami, Fla.).

HCT116/vector cells [9] = assay: Flow cytometry of cell cycle (DNA content); type: cell-based, human; details: 48 h
Method: as §4

ZR-75-1 cells [10] = assay: ChIP with anti-MUC1 C-ter antibody, Bax gene PP; type: cell-based, human; details: 50 μM, time course
Method: as §3

HCT116/MUC1 cells [11] = assay: ChIP with anti-MUC1 C-ter antibody, Bax gene PP; type: cell-based, human; details: 50 μM, time course
Method: as §3

p53 [12] = target: p53 (Homo sapiens, UniProt P04637, R273H); assay: Co-immunoprecipitation of Myc-MUC1-CD variants with p53 in transfected U2OS cells; type: cell-based; details: transiently transfected U2OS cells
Method: as §1
Plasmid construction and transfection. […] Transfections were performed in 60 mm tissue culture dishes using Fugene®-6 (Roche Applied Science, Indianapolis, Ind.) or, for the luciferase assays, in 24 well tissue culture plates using the calcium phosphate method (Invitrogen, Carlsbad, Calif.). […]

p53 [13] = target: T1, p53 (Homo sapiens, UniProt P04637); assay: GST pull-down of 35S-labeled p53 by GST-MUC1-CD variants; type: binding; details: GST fusion proteins, 90 min at 4° C.
T1 construct: made in house; host or cells: cell-free TNT in vitro transcription/translation reaction (Promega)
Description: GST pull-down assays. […] After washing, the adsorbed proteins were resolved by SDS-PAGE and analyzed by autoradiography or Coomassie blue staining.

Row | Molecule | binding of endogenous MUC1 and p53 (ZR-75-1 cells [1]) | association of p53 and MUC1 (HCT116/MUC1 cells [2]) | clonogenic survival following drug treatment (ZR-75-1 cells [3]) | clonogenic survival of drug-treated cells [4] | MUC1 occupancy of p21 gene p53RE2 (ZR-75-1 cells [5]) | MUC1 occupancy of p21 gene p53RE2 (HCT116/MUC1 cells [6]) | p53 occupancy of the p21 gene p53RE2 (HCT116/vector cells [7]) | cell cycle progression (HCT116/MUC1 cells [8]) | cell cycle progression (HCT116/vector cells [9]) | MUC1 occupancy of the Bax gene PP (ZR-75-1 cells [10]) | MUC1 occupancy of the Bax gene PP (HCT116/MUC1 cells [11]) | complex formation with p53 in cells (p53 [12]) | binding to 35S-labeled p53 in vitro (p53 [13])
1 | N.N.[Cl][Pt][Cl] [cisplatin] | Increased binding of endogenous MUC1 and p53 | increase in the association of p53 and MUC1 | increased by MUC1 expression | higher | increases | increases | increased | G1 arrest of cell cycle progression | G1 arrest of cell cycle progression | increased through 4-6 h | increased through 4-6 h | – | –
2 | COc1cc([C@@H]2c3cc4c(cc3[C@@H](O[C@@H]3O[C@@H]5CO[C@@H](C)O[C@H]5[C@H](O)[C@H]3O)[C@H]3COC(=O)[C@H]23)OCO4)cc(OC)c1O [etoposide] | Increased binding of endogenous MUC1 and p53 | increase in the association of p53 and MUC1 | increased by MUC1 expression | higher | increases | increases | increased | G1 arrest of cell cycle progression | G1 arrest of cell cycle progression | increased through 4-6 h | increased through 4-6 h | – | –
3 | MUC1-CD(1-51): deletion variant of MUC1-CD, amino acids 1-51 (SEQ ID NO:5) (CQCRRKNYGQLDIFPARDAYHPMSEYPTYHTHGRYVPPSSTNRSPYEKVSE; listed as Homo sapiens) | – | – | – | – | – | – | – | – | – | – | – | in vivo binding of p53 | sufficient to form a complex with p53 in vitro
